Here are results for one molecule from patent US20250206708A1, “AN OXAZIRIDINE PLATFORM FOR TARGETING FUNCTIONAL ALLOSTERIC METHIONINE SITES” (Novartis AG, priority 2022, published 2025).

Test [1] concerns the target T1, CDK4 (Homo sapiens, UniProt P11802). As to the kind of experiment: Shotgun proteomics (MS/MS) site of modification on CDK4. As to conditions: 50 μM oxaziridine, 30 min, 23° C. Type of test: binding. As for the experimental part: To more accurately assess residue reactivity of oxaziridines on CDK4, 10 μg of CDK4 was diluted with 90 μg whole cell extract derived from mouse liver to a total volume of 100 μL in PBS. Protein mixture was treated with 50 μM oxaziridine (DMSO) and allowed to incubate at 23° C. for 30 min. Labeled protein was precipitated via addition of 900 μL MeOH at −80° C. overnight. The next day, sample was spun at max speed at 4° C. for 10 min. The pellet was gently washed 3 times with a solution of ice cold MeOH. The supernatant was then removed, and the pellet resuspended in 30 μL freshly prepared 8 M urea/PBS. A 5× stock of ProteaseMAX (Promega; cat no. V2071) was prepared by dissolved the pellet in 100 μL ammonium bicarbonate. To the protein mixture was added 30 μL 1×ProteaseMAX, 40 μL ammonium bicarbonate, and 10 μL of 110 mM freshly prepared TCEP (Pierce; cat no. 20490). […]
Peptides from all experiments were analyzed on a Q Exactive Plus mass spectrometer (Thermo Fisher Scientific); pure proteins were analyzed on a C18 only column, while complex proteomes were analyzed via a five step Multidimensional Protein Identification Technology (MudPIT).^7 In both cases, Inlines (IDEX; cat no.M-520) were fitted with ˜20 cm of 250 μm tubing and prepacked with 4 cm of Aqua C18 reverse-phase resin (Phenomenex; cat no. 04A-4299). […]
Data were analyzed with Byologic (Protein Metrics Inc.). […]

For test [2], the target named is T1, CDK4. As to the kind of experiment: Gel-based ABPP competition with Compound 303 probe on isolated CDK4. Type of test: binding. As to conditions: Cy3 fluorescence readout. As for the experimental part: Activity-based protein profiling (ABPP) was performed as follows. CDK4 was diluted in PBS to 50 nM, then 50 μL was added to each well of a 96-well PCR plate. Ligands were dissolved fresh in DMSO to 5 μM, and 1 μL was added so each well contained a unique ligand at the indicated concentration. Wells were mixed and allowed to incubate 1 h at 23° C. […] Excess oxaziridine was quenched with N-acetyl methionine via addition of 1 μL of 10 mM DMSO stock (200 μM final), wells mixed and allowed to incubate 1 h at 23° C. A stock was prepared 1:5 of 12.5 μM DBCO-Cy3 in DMSO: 1.2% SDS/PBS. To each well was added 6 μL of this stock, the wells mixed and allowed to incubate overnight protected from light at 23° C. […] Samples were loaded and separated on precast 4-20% TGX gels and scanned by ChemiDoc MP for measuring in-gel fluorescence. […]
The oxaziridine fragment library from Example 8 was screened for methionine-directed modifiers of CDK4 via a gel-based ABPP platform as described in Example 3, seen in FIG. 7B. […] DBCO-Cy3 was then introduced by strain-promoted click chemistry to provide a fluorescence readout. The samples were subsequently separated via SDS-PAGE and fluorescence signals were normalized via silver stain to triage any covalent ligands that induced general protein aggregation, which would generate a false positive Cy3 signal, as shown in FIG. 5B. […]

T1 sequence (P11802 whole entry): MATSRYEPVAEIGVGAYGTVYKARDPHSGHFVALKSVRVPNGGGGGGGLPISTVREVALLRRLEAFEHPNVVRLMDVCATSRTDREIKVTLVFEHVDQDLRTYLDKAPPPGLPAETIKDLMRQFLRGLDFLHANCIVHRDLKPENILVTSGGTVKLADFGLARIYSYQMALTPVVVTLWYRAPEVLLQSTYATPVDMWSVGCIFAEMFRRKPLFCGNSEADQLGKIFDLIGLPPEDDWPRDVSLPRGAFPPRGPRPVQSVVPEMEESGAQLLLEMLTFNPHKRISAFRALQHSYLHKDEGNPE
T1 sequence (P24385 whole entry partner): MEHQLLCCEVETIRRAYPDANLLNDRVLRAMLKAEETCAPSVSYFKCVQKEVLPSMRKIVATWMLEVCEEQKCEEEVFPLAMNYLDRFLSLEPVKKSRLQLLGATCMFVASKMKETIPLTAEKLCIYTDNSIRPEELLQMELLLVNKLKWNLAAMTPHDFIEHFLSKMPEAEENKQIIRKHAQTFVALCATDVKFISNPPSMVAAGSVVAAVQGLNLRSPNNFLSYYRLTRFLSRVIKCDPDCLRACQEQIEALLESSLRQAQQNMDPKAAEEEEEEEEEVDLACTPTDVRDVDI

On to `O=C(N1CC2COCC2C1)N1OC1c1ccccc1` (centres unmarked) [Compound 148], for which, at CDK4 [1], the “site(s) of modification on CDK4” value was “M169, with minor labeling at M264”. Also, on CDK4 [2], the “competition with Compound 303 probe for CDK4 binding” value is recorded as “competition with the Compound 303 probe for CDK4 binding in a dose-dependent manner”.
